Reference: patent US4229477A, “Pharmaceutical compositions containing bromhexine and method of treating diabetic nephropathy therewith” (Boehringer Ingelheim GmbH, priority 1978, dated 1980)

How the values were obtained:
[1] = tested on: glycoprotein metabolism; assay: Effect of bromhexine on glycoprotein metabolism: urinary excretion of carbohydrate-containing material, diabetics; type: in vivo, humans
Description: (§1) The effect of N-(2-amino-3,5-dibromo-benzyl)-N-methyl-cyclohexylammonium chloride (Bromhexine) on glycoprotein metabolism was determined as follows:
(§2) 24 hour collections were made from 8 normal healthy humans (4 women and 4 men) and 8 diabetics (1 woman and 7 men) before and after a 3 to 4 week period of treating each subject orally 3 times with 24 mg of bromhexine. A 20% by volume aliquot was taken from each urine specimen and freeze-dried.
(§3) The dried material (ca 1 gm) was dissolved in the minimum quantity of distilled water and the solution was chromatographed with water on a Sephadez G-50 column (length: 148 cm; diameter: 3.4 cm). The carbohydrate-containing fraction was collected and subjected to ultrafiltration using a UM-05 membrane (Amicon Ultrafiltration Cell-Model 202). The filtrate obtained was again freeze-dried.
(§4) The dried material (ca 1 mg) was analyzed for carbohydrate, using gas-liquid chromatography. In this procedure, the sample, together with internal standards, was first subjected to methanolysis with 1.0 M HCl in dry methanol (0.5 ml) for 24 hours at 85° C. The resulting solution was neutralized and then treated with acetic acid anhydride (0.05 ml) for 6 hours. On completion of the treatment the solution obtained was centrifuged, and the supernatant liquid was transferred to a clean flask, dried and stored in a dessicator. When required for gas chromatography, the dried material was triturated with a trimethylsilylating mixture, and the resulting trimethylsilyl ethers of the methyl glycosides were subjected to gas chromatography (140°-200° C. at 0.5° C./min.).
5 patients were maintained on insulin, 2 on oral hypoglycemic agents and 1 on diet alone. Diabetic treatment was not changed during the study. 3 patients suffered varying degrees of retinopathy, 1 had ischaemic heart disease and 1 had intermittent proteinuria.

[2] = tested on: mice; details: British Pat. No. 968,254; cited from earlier work
[3] = tested on: glycoprotein metabolism; assay: Effect of bromhexine on glycoprotein metabolism: urinary excretion of carbohydrate-containing material, healthy subjects; type: in vivo, humans; details: after treatment
Description: as §1, §2, §3, §4

[4] = healthy subjects, oral, 3 times 24 mg, 3 to 4 weeks, before 121

## CN(Cc1cc(Br)cc(Br)c1N)C1CCCCC1 [N-(2-amino-3,5-dibromo-benzyl)-N-methyl-cyclohexylamine]
[1]; diabetics, 15 to 30 mg, 3 to 4 times per day
  proportion of saccharide and glycopeptide excreted: strongly reduced to levels equivalent to those of a normal healthy subject

## CN(Cc1cc(Br)cc(Br)c1N)C1CCCCC1.Cl [bromhexine, N-(2-amino-3,5-dibromo-benzyl)-N-methyl-cyclohexylammonium chloride]
[1]; diabetic subjects, after treatment
  excretion of carbohydrate-containing material: considerable decrease
[1]; diabetics, after treatment, oral, 3 times 24 mg, 3 to 4 weeks, 24 hour urine, before 1,694
  24 - Hour Volume: 1,686 ml
[1]; diabetics, after treatment, oral, 3 times 24 mg, 3 to 4 weeks, before 8.7
  Fraction dry weight: 6.1 gm
[1]; diabetics, after treatment, oral, 3 times 24 mg, 3 to 4 weeks, before 102.6
  Total dry weight: 110.7 gm
[1]; diabetics, after treatment, oral, 3 times 24 mg, 3 to 4 weeks, before 195
  Carbohydrate content: N-Acetylneuraminic acid: 145 μMol/24 hours
[1]; diabetics, after treatment, oral, 3 times 24 mg, 3 to 4 weeks, before 205
  Carbohydrate content: Mannose: 121 μMol/24 hours
[1]; diabetics, after treatment, oral, 3 times 24 mg, 3 to 4 weeks, before 259
  Carbohydrate content: Fucose: 203 μMol/24 hours
[1]; diabetics, after treatment, oral, 3 times 24 mg, 3 to 4 weeks, before 264
  Carbohydrate content: N-Acetylgalactosamine: 176 μMol/24 hours
[1]; diabetics, after treatment, oral, 3 times 24 mg, 3 to 4 weeks, before 313
  Carbohydrate content: N-Acetylglucosamine: 181 μMol/24 hours
[1]; diabetics, after treatment, oral, 3 times 24 mg, 3 to 4 weeks, before 616
  Carbohydrate content: Galactose: 383 μMol/24 hours
[1]; diabetics, after treatment, oral, 3 times 24 mg, 3 to 4 weeks, before 1,854
  Carbohydrate content: Glucuronic acid: 987 μMol/24 hours
[1]; diabetics, after treatment, oral, 3 times 24 mg, 3 to 4 weeks, before 12,609
  Carbohydrate content: Glucose: 7,241 μMol/24 hours
[2]
  animals died (acute oral toxicity): 0 out of 10
[3]; healthy subjects, oral, 3 times 24 mg, 3 to 4 weeks, 24 hour urine, before 1,281
  24 - Hour Volume: 1,406 ml
[3]; healthy subjects, oral, 3 times 24 mg, 3 to 4 weeks, before 4.2
  Fraction dry weight: 4.4 gm
[3]; healthy subjects, oral, 3 times 24 mg, 3 to 4 weeks, before 36.3
  Total dry weight: 44.0 gm
[3]; healthy subjects, oral, 3 times 24 mg, 3 to 4 weeks, before 94
  Carbohydrate content: N-Acetylneuraminic acid: 147 μMol/24 hours
[3]; [4]
  Carbohydrate content: Fucose: 224 μMol/24 hours
  Carbohydrate content: Mannose: 169 μMol/24 hours
[3]; healthy subjects, oral, 3 times 24 mg, 3 to 4 weeks, before 139
  Carbohydrate content: N-Acetylgalactosamine: 196 μMol/24 hours
[3]; healthy subjects, oral, 3 times 24 mg, 3 to 4 weeks, before 204
  Carbohydrate content: N-Acetylglucosamine: 287 μMol/24 hours
[3]; healthy subjects, oral, 3 times 24 mg, 3 to 4 weeks, before 258
  Carbohydrate content: Galactose: 364 μMol/24 hours
[3]; healthy subjects, oral, 3 times 24 mg, 3 to 4 weeks, before 329
  Carbohydrate content: Glucose: 425 μMol/24 hours
[3]; healthy subjects, oral, 3 times 24 mg, 3 to 4 weeks, before 1,085
  Carbohydrate content: Glucuronic acid: 1,573 μMol/24 hours
[3]; normal subjects
  urinary excretion of carbohydrate-containing material: insignificant rise
